In PubChem BioAssay AID1963875 (Molecular Pharmacology Branch, DTP, NCI, 2024):
Several values for one entry are separate records, joined by “and”; a condition that tells them apart may be missing. Identical values can stand only once.

Tested on: KRAS-mutant PDC complex spheroid viability
Assay: Anticancer human tumor 186277-243-T-J2-PDC patient-derived colon adenocarcinoma cell line growth inhibition [KRAS2]
Conditions: for viability, T/C: stronger effect = lower value; active means viability on the fitted dose curve at most 10% of control; inactive means the rest
Source text: Multicellular complex tumor spheroid response to RAS pathway inhibitors in combination with a targeted agents in patient-derived cell lines with oncogenic KRAS variants from multiple cancer types
A high-throughput screen of multi-cell type tumor spheroids was designed to identify active combinations of targeted small molecules and KRAS pathway inhibitors. Complex spheroids include a stromal component modeled by human endothelial cells (HUVEC) and fibroblasts modeled by human mesenchymal stem cells (MSCs). The concentration ranges selected for each drug and investigational agent were based upon clinically achievable concentrations if the clinical Cmax of the agent was known.
Compounds. The drugs and investigational agents: BI-3406 (NSC825286), BAY-293 (NSC824723), batoprotafib (TNO155; NSC825523), sotorasib (AMG 510; NSC818433), MRTX1257 (NSC819558), elimusertib (BAY 1895344; NSC800525), molibresib (GSK525762; NSC774829), temuterkib (LY3214996; NSC803410), venetoclax (NSC766270), alisertib (NSC759677), olaparib (NSC753686), talazoparib (NSC767125), erdafitinib (NSC781556), ipatasertib (NSC767898), cabozantinib (NSC761068), nintedanib (NSC756659), abemaciclib (NSC768073), docetaxel (NSC628503), trametinib (NSC758246), and sapanisertib (NSC764658) were obtained from the National Cancer Institute (NCI) Developmental Therapeutics Program Chemical Repository. The FDA-approved anticancer drug set is available from the Developmental Therapeutics Program. […] The stock solutions were prepared in dimethyl sulfoxide (DMSO, Sigma-Aldrich, St. Louis, MO, cat. D2650) at 800-fold the tested concentration and stored at -70 degrees C prior to their use. All drugs and investigational agents were tested over a range starting from a high concentration at or near the clinical Cmax and decreasing in half-log increments. If the clinical Cmax for an agent had not been determined, the highest concentration tested was 10 microM.
Cell Culture. All cells were maintained in an incubator at 37 degrees C and 5% CO2 with 95% humidity. The PDC lines were cultured according to standard operating procedures established by the NCI PDMR (https://pdmr.cancer.gov/sops/default.htm). Briefly, all PDCs were thawed and cultured in Matrigel-coated flasks prepared with a working solution of 1X Ham's F-12 nutrient mix, without supplementation (Invitrogen, Waltham, MA, cat. 11765054), 100 U/mL penicillin-streptomycin (Invitrogen, cat. 15140122), and 2.5% Matrigel (Corning Inc., Corning, NY, cat. 354248) for the first three passages. All PDCs were cultured in complete DMEM/F-12 media containing advanced DMEM/F-12 (Invitrogen, cat. 12634028), 4.9% defined fetal bovine serum, heat inactivated (HyClone Laboratories Inc., Logan, UT, cat. SH30070.03HI), 389 ng/mL hydrocortisone (Sigma-Aldrich, cat. H4001), 9.7 ng/mL human EGF recombinant protein (Invitrogen, cat. PHG0313), 23.4 microg/mL adenine (Sigma-Aldrich, cat. A2786), 97.3 U/mL penicillin-streptomycin (Invitrogen, cat. 15140122), 1.9 mM L-glutamine (Invitrogen, cat. 25030081), and 9.7 microM Y-27632 dihydrochloride (Tocris Bioscience, Bristol, United Kingdom, cat. 1254). The PDCs were cultured in complete DMEM/F12 media without 9.7 microM Y-27632 dihydrochloride for at least two passages prior to the screen. The established cell line HOP-62 was cultured in RPMI 1640 medium, HEPES (Invitrogen, cat. 22400105) with 10% defined fetal bovine serum (HyClone Laboratories Inc., cat. SH30070.03) and 2 mM L-glutamine (Invitrogen, cat. 25030081). The pooled donor HUVEC were cultured in endothelial cell growth medium 2 (PromoCell, Heidelberg, Germany, cat. C-22011) and the hMSC were cultured in mesenchymal stem cell growth medium 2 (PromoCell, cat. C-28009). For all experiments, HUVEC and hMSC were used at passages </=5, while the malignant cell lines were used at passages </=15. […]
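Wherever viability, T/C is given: viability read after seven days of compound exposure; 100% = DMSO vehicle-treated spheroids so lower means less viable.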

COc1cc(Nc2ncc3c(n2)-c2ccc(Cl)cc2C(c2c(F)cccc2OC)=NC3)ccc1C(=O)O + C=CC(=O)N1CCN(c2nc(OCC3CCCN3C)nc3c2CCN(c2cccc4cccc(C)c24)C3)CC1CC#N
active: viability, T/C (second compound 3.16 µM, first compound 0.0316 µM) 0.25% | viability, T/C (second compound 3.16 µM, first compound 0.1 µM) 0.19% | viability, T/C (second compound 3.16 µM, first compound 0.316 µM) 0.19% | viability, T/C (second compound 3.16 µM, first compound 1 µM) 0.17% | viability, T/C (second compound 3.16 µM, first compound 3.16 µM) 0.69% | viability, T/C (second compound 3.16 µM, first compound 10 µM) 0.19%
inactive: viability, T/C (second compound 0.0316 µM, first compound 0.0316 µM) 34% | viability, T/C (second compound 0.0316 µM, first compound 0.1 µM) 32.2% | viability, T/C (second compound 0.0316 µM, first compound 0.316 µM) 30% | viability, T/C (second compound 0.0316 µM, first compound 1 µM) 34.5% | viability, T/C (second compound 0.0316 µM, first compound 3.16 µM) 43.3% | viability, T/C (second compound 0.0316 µM, first compound 10 µM) 48% | viability, T/C (second compound 0.1 µM, first compound 0.0316 µM) 34.2% | viability, T/C (second compound 0.1 µM, first compound 0.1 µM) 31.7% | viability, T/C (second compound 0.1 µM, first compound 0.316 µM) 30.3% | viability, T/C (second compound 0.1 µM, first compound 1 µM) 31.2% | viability, T/C (second compound 0.1 µM, first compound 3.16 µM) 42.8% | viability, T/C (second compound 0.1 µM, first compound 10 µM) 44.2% | viability, T/C (second compound 0.316 µM, first compound 0.0316 µM) 34.3% | viability, T/C (second compound 0.316 µM, first compound 0.1 µM) 28.6% | viability, T/C (second compound 0.316 µM, first compound 0.316 µM) 27.4% | viability, T/C (second compound 0.316 µM, first compound 1 µM) 30.2% | viability, T/C (second compound 0.316 µM, first compound 3.16 µM) 40.2% | viability, T/C (second compound 0.316 µM, first compound 10 µM) 42.5% | viability, T/C (second compound 1 µM, first compound 0.0316 µM) 28% | viability, T/C (second compound 1 µM, first compound 0.1 µM) 26.4% | viability, T/C (second compound 1 µM, first compound 0.316 µM) 25.9% | viability, T/C (second compound 1 µM, first compound 1 µM) 25.3% | viability, T/C (second compound 1 µM, first compound 3.16 µM) 29.5% | viability, T/C (second compound 1 µM, first compound 10 µM) 21.6%
< 31.6 nM: IC50 (curve of first compound, second compound 0.0316 µM) | IC50 (curve of first compound, second compound 0.1 µM) | IC50 (curve of first compound, second compound 0.316 µM) | IC50 (curve of first compound, second compound 1 µM) | IC50 (curve of first compound, second compound 3.16 µM)

CCN1CCN(Cc2ccc(Nc3ncc(F)c(-c4cc(F)c5nc(C)n(C(C)C)c5c4)n3)nc2)CC1
> 1000 nM: IC50 (curve of compound)
inactive: viability, T/C (compound 0.00316 µM) 98.8% [middle of 4 runs] | viability, T/C (compound 0.01 µM) 98.5% [middle of 4 runs] | viability, T/C (compound 0.0316 µM) 107% [middle of 4 runs] | viability, T/C (compound 0.1 µM) 112% (2×) and 136% and 113% | viability, T/C (compound 1 µM) 101% [middle of 4 runs]

Cn1ncnc1[C@H]1c2n[nH]c(=O)c3cc(F)cc(c23)N[C@@H]1c1ccc(F)cc1
> 100 nM: IC50 (curve of compound)
inactive: viability, T/C (compound 0.000316 µM) 99% [middle of 5 runs] | viability, T/C (compound 0.001 µM) 98% [middle of 5 runs] | viability, T/C (compound 0.00316 µM) 101% [middle of 5 runs] | viability, T/C (compound 0.01 µM) 98.1% [middle of 5 runs] | viability, T/C (compound 0.0316 µM) 91% [middle of 5 runs] | viability, T/C (compound 0.1 µM) 80.8% [middle of 5 runs]
